The values that follow come from paper PMC5982655, “Interaction of the New Monofunctional Anticancer Agent Phenanthriplatin With Transporters for Organic Cations” (Frontiers in Chemistry, 2018).

“Also recorded” adds a separate entry of the source.

The subject of one assay is DAOY cells. The experiment in a line: MTT cell viability, DAOY medulloblastoma cells. It counts as cell-based. As to the method:
A modified 3-(4,5-dimethylthiazol-2-yl)-2,5-diphenyltetrazolium bromide (MTT) assay (Mosmann, [1983]) was used to test the chemosensitivity of cells to phenanthriplatin and, in some experiments, to cisplatin by determining the glycolysis rate via the reduction of the yellow tetrazolium salt MTT to a purple formazan dye, as previously described (Wehe et al., [2014]). Briefly, after growing for 24 h in the incubator, cells expressing or not hOCT2, hMATE1, hMATE2 or Ctr1 were treated for 10 min with platinum derivatives. Control cells were incubated with drug-free complete cell culture medium. Afterwards, the medium was carefully removed and replaced by 200 μL of fresh complete cell culture medium. After incubation for another 24 h, 10 μL of MTT solution containing 5 mg/mL of the dye were added to each well, and the cells were again incubated for 3 h. The medium was then removed and 100 μL of lysis buffer containing 10% (w/v) sodium dodecyl sulfate and 40% (v/v) dimethylformamide was added to each well. The plates were shaken for 10 min to destroy the cell structure and dissolve the blue formazan dye (Furchert et al., [2007]; Wehe et al., [2014]). Finally, the absorbance was measured at 590 nm using an automated microtiter plate reader (Infinite M200; Tecan, Männedorf, Switzerland). The percentage of viable cells in the untreated controls was compared to that for the various treatments. Experiments carried out with DAOY and UW228 cells followed a similar protocol except that these cells were incubated for 24 h with phenanthriplatin.
(§1) Data are presented as mean values ± SEM, with (n) referring to the number of wells. IC50 values defined as the concentration of platinum agent required to inhibit uptake of ASP^+ by 50% and EC50 values used to assess cell viability were obtained by sigmoidal concentration-response curve fitting using GraphPad Prism, Version 5.3 (GraphPad Software, San Diego, USA). […] For multiple comparisons, ANOVA with Bonferroni post-test was used. A P-value < 0.05 was considered statistically significant.

The next assay deals with T1, hOCT2 (Homo sapiens, UniProt O15244).
T1 construct: expressed in transfected cells; gift of H. Koepsell
T1 sequence (O15244 1-555): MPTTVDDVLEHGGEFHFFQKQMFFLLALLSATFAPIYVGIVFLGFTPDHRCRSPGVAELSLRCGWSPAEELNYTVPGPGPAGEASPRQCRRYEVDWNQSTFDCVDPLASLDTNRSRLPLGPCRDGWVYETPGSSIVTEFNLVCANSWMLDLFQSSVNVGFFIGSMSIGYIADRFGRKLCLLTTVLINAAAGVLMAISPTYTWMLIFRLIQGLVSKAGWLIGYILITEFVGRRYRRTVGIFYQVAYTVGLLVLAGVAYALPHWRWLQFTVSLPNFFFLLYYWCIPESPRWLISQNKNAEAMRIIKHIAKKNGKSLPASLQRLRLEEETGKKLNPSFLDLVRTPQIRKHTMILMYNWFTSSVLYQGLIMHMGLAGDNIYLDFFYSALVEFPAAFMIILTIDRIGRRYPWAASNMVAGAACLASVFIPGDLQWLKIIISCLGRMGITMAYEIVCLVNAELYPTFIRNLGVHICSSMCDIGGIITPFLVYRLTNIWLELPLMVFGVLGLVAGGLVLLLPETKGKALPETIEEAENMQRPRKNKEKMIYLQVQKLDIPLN
The experiment in a line: Inhibition of ASP+ uptake in HEK 293 cells expressing hOCT2. It counts as cell-based. The following applies: HEK 293 hOCT2, 1 μM ASP+. As to the method: (§2) The interaction of phenanthriplatin with transporters for organic cations (OCT1-3, MATE1, and MATE2K) was investigated by measuring its effects on the uptake of the fluorescent organic cation 4-(4-dimethylamino)styryl-N-methylpyridinium (ASP^+). Microfluorometric measurements of ASP^+ uptake were performed with a fluorescence plate reader (Infinity 200, Tecan, Crailsheim, Germany; excitation at 465 nm, emission at 590 nm) as described previously for cultured HEK 293 cells (Wilde et al., [2009]). Before measurements, the culture medium in the wells of the 96 well microtiter plate containing HEK 293 cells was replaced by a HCO3- -free Ringer-like solution containing (in mM) NaCl 145, K2HPO4 1.6, KH2PO4 0.4, D-glucose 5, MgCl2 1, calcium gluconate 1.3, and pH adjusted to 7.4. Fluorescence was measured dynamically at 37°C in each well before and after ASP^+ addition to HCO3- -free Ringer-like solution, alone or together with increasing phenanthriplatin concentrations, and plotted versus time. ASP^+ (final concentration 1 or 10 μM for experiments with OCTs or MATEs, respectively) was added after the third sampling interval. Emission from the complete area of the well bottom was analyzed four times and averaged for each well. […] Background fluorescence was measured for each plate in wells with identical solutions containing no cells and subtracted from each well containing cells. Experiments were performed with cells from one passage of the same day with controls and test replicates in the same plate.
as §1

In a further assay the target is T2, mOCT2 (Mus musculus, UniProt O70577).
T2 construct: expressed in transfected cells
T2 sequence (O70577 1-553): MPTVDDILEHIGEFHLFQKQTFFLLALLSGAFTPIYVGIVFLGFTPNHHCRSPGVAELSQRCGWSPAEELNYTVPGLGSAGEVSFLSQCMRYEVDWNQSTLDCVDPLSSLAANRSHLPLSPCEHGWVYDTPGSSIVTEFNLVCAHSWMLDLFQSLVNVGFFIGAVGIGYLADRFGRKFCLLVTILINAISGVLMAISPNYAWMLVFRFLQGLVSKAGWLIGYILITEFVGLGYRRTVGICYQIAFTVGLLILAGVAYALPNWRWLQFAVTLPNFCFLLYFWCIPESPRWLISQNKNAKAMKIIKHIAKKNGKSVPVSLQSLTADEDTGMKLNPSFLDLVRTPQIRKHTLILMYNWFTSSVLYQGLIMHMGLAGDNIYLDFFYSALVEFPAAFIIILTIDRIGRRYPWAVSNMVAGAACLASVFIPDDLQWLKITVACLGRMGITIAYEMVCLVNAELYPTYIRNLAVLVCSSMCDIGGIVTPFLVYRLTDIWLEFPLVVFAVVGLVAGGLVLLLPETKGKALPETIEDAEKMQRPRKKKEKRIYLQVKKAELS
As to the kind of experiment: Inhibition of ASP+ uptake in HEK 293 cells expressing mOCT2. The following applies: HEK 293 mOCT2, 1 μM ASP+. The class given is cell-based, murine. As to the method:
as §2, with “Experiments were performed with cells from one passage of the same day with controls and test replicates in the same plate.” left out

The EC50 is the concentration that produces a half-maximal response. As a reminder, the IC50 is the concentration that inhibits the measured activity by half. A higher IC50 goes with a need for much substance. With `N.N.[Cl][Pt+].c1ccc2c(c1)cnc1ccccc12` [phenanthriplatin, cis-[Pt(NH3)2Cl(phenanthridine)]^+], in the assay with DAOY cells (24 h, 1 μM phenanthriplatin + 10-fold higher cimetidine), the “Protection from phenanthriplatin toxicity by cimetidine (cell viability, MTT)” value is recorded as “efficaciously protected against phenanthriplatin toxicity by cimetidine; also recorded: significantly decreased the toxicity of this compound in DAOY”. Further, in the assay with DAOY cells (24 h incubation, MTT), the concentration giving a half-maximal response (EC50) stood at 900 nM and the “logEC50 ± SEM for viability” value was −6.05 ± 0.02. For the same molecule, on hOCT2, the IC50 came out at 2000 nM and the “logIC50 (logEC50) ± SEM for inhibition of ASP+ uptake” value was −5.67 ± 0.10. Besides, on mOCT2, the midpoint of inhibition, the IC50, lay at 2000 nM and the “logIC50 (logEC50) ± SEM for inhibition of ASP+ uptake” value is listed as −5.64 ± 0.05.
